Experimental data from patent US5496546A, “Compositions and methods of application of reactive antiviral polyadenylic acid derivatives” (priority 1994, dated 1996).

Key:
[1] = biological target: T1, HIV RT (Human immunodeficiency virus type 1 group M subtype B, UniProt P04585); test: Inhibition of viral reverse transcriptase in solution, HIV RT; format: biochemical
T1 construct: Reverse transcriptase samples from HIV (HIV RT)
Protocol: Reverse transcriptase samples from HIV (HIV RT) and from Moloney murine leukemia virus (MLV RT) and from avian myeloblastosis virus (AMV RT) were separately incubated with FDNP-poly[A] at 25° C. in a Tris-HCl buffer (0.1M, pH 8.2) containing 1 mM MgCl2 and 125 mM KCl and measured for RT activity. In each experiment, the selected enzyme was incubated for 10 minutes at 25° C. in an incubation mixture containing the potassium salt of the inhibitor at a given concentration. After ten minutes the incubated mixture was rapidly injected into an assay solution and further incubated for 10 min at 37° C., then precipitated with trichloroacetic acid, washed, and assayed for the radioactive polynucleotide formed by scintillation counting. The assay mixture contained 125 mM Tris-HCl (pH 8.2), 1 mM MgCl2, 125 mM KCl, 250 μM [^3 H]dTTP as the substrate and 23 nM Poly[A]-[dT],12 as the template.
Similar results were obtained with DNP-poly[A].

[2] = biological target: murine leukemia RT (Moloney murine leukemia virus, UniProt P03355); conditions: cited from earlier work
[3] = biological target: T2, HIV-1 RT (wild type) (Human immunodeficiency virus type 1 group M subtype B, UniProt P04585); test: Inhibition of different HIV RTs, poly C-[dG]12-18 template; format: biochemical; conditions: poly C-[dG]12-18, [^3 H]dGTP; approximate
T2 construct: HIV-1 RT (wild type)

[4] = biological target: T3, HIV-2 (wild type) (Human immunodeficiency virus type 2 subtype A, UniProt P04584); test: as above; format: biochemical; conditions: poly C-[dG]12-18, [^3 H]dGTP; approximate
T3 construct: with the RT from four different strains of the human virus: HIV-1 RT (wild type), HIV-2 (wild type)

[5] = biological target: HIV-141,215 RT (AZT-resistant mutant, Thr 215→Tyr, Met 41→Leu) (Human immunodeficiency virus type 1 group M subtype B, UniProt P04585, M628L/T802Y); test: as above; format: biochemical, HIV-1; conditions: poly C-[dG]12-18, [^3 H]dGTP; approximate
[6] = biological target: T4, HIV-1181c RT (Nevirapine-resistant mutant) (Human immunodeficiency virus type 1 group M subtype B, UniProt P04585, Y768C); test: as above; format: biochemical, HIV-1; conditions: poly C-[dG]12-18, [^3 H]dGTP; approximate
T4 construct: HIV-1181c RT (Nevirapine-resistant mutant)

T3 sequence (P04584 613-1171 limits assumed): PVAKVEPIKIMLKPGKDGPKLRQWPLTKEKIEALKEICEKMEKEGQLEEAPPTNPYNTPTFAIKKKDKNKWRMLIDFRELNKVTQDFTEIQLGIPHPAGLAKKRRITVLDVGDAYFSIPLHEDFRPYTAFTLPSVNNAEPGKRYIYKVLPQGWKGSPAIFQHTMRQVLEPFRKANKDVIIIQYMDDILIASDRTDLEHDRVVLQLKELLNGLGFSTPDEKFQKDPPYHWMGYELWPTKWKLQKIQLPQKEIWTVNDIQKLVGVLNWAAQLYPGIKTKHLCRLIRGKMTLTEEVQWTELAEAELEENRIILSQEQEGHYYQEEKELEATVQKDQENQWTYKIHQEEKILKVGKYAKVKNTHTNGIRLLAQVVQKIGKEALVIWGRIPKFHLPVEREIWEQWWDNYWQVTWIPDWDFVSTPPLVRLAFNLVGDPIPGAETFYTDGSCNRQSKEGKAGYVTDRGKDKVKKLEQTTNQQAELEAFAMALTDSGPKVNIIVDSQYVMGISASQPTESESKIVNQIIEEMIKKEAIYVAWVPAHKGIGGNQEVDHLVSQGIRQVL
T3 sequence (P04584 613-1052 partner limits assumed): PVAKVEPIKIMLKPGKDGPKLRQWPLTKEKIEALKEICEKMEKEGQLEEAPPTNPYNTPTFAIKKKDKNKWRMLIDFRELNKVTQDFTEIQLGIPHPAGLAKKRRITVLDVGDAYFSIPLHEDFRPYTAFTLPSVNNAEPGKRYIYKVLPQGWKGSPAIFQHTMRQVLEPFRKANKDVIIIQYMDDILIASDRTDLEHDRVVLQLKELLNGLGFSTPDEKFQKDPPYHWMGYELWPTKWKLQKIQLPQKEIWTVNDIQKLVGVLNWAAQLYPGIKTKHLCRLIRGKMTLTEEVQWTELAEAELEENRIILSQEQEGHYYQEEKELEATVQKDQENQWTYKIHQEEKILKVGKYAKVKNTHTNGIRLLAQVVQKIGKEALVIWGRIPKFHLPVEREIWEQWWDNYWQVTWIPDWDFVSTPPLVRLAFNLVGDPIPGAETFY

Nc1ncnc2c1ncn2[C@@H]1O[C@H](COP(=O)(O)OP(=O)(O)O)[C@@H](Oc2cc(F)c([N+](=O)[O-])cc2[N+](=O)[O-])[C@H]1O [3'-O-(5-fluoro-2,4-dinitrophenyl) ADP ether]
molar concentration required to inhibit HIV RT [1]: million-fold higher molar concentration

Nc1ncnc2c1ncn2[C@@H]1O[C@H](COP(=O)(O)OP(=O)(O)OP(=O)(O)O)[C@@H](Oc2cc(F)c([N+](=O)[O-])cc2[N+](=O)[O-])[C@H]1O [the corresponding ATP ether, 3'-O-(5-fluoro-2,4-dinitrophenyl) ATP ether]
molar concentration required to inhibit HIV RT [1]: million-fold higher molar concentration

poly(2-fluoroadenylic acid) [(fl^2 A)n]
IC50 [2]: 0.04 µg/mL

polyadenylic acid (5') [Poly[A]]
IC50 of the RT, HIV-1 (wild) [3]: no inhibitory effect
IC50 of the RT, HIV-2 (wild) [4]: no inhibitory effect
IC50 of the RT, HIV-141,215 [5]: no inhibitory effect
IC50 of the RT, HIV-1181C [6]: no inhibitory effect
